Series [1] deals with complete Freund's adjuvant (CFA) model of inflammatory pain. Nature of the series: CFA model of inflammatory pain. The series is classed as in vivo, rat. Particulars: topical, dose-response; model not restated (follows CFA paragraph).
A short description of series [2]: minipig repeated dermal dosing: spiro-oxindole compound in plasma (LC-MS/MS). It is filed as in vivo, Göttingen minipig. As to conditions: minipigs. Here is the method:
The study was carried out on minipigs to obtain information on plasma pharmacokinetics, tissue distribution and accumulation, excretion and metabolic profile of the spiro-oxindole compound after daily dermal administration of a pharmaceutical composition of the invention for 20 consecutive days followed by a single dose of [^14C]-spiro-oxindole compound Day 21.
Midazolam was administered on Days 0 and 20 to 3 male minipigs by bolus intravenous injection at a dose level 0.5 mg/kg.
The [^14C]-spiro-oxindole composition was prepared as follows:
Dosages of test formulations were applied with foil and spread using nitrile gloves to form a thin uniform layer to the treatment site.

Series [3] can be described thus: minipig: tissue distribution of radioactivity and unchanged compound. As to conditions: for concentration at 24 h: male, Göttingen, minipig, topical, 70 mg spiro-oxindole compound equivalents ointment/kg. It is filed as in vivo, Göttingen minipig. The source says:
The following tissues/organs were removed from the remaining carcass:
The urinary bladder from each animal was rinsed with saline and the washings discarded. Each section of the gastrointestinal tract wall was washed to remove contents (which were retained for analysis) prior to analysis. Remaining carcasses were discarded.

The nature of series [4]: previous topical clinical studies (PHN and EM) overall. As to conditions: human, in vivo. How it is done: Although not previously studied in patients with osteoarthritis, a topical formulation of the spiro-oxindole compound of the invention has been tested in clinical studies and was well tolerated by patients with postherpetic neuralgia (PHN) and erythromelalgia.
In general, the maximal concentrations of the spiro-oxindole compound following topical application are determined under “maximal use conditions,” taking into consideration such factors as ointment strength, application volume, application surface area, and frequency and duration of dosing.
Nevertheless, the exposure level anticipated in this study is expected to be higher than that observed in any single patient population administered a therapeutic dose a topical pharmaceutical composition of the invention. This study is therefore intended to help in the selection of a topical dose and regimen of a topical pharmaceutical composition of the invention.

On to `O=C1N(Cc2ccc(C(F)(F)F)o2)c2ccccc2[C@]12COc1cc3c(cc12)OCO3` [spiro-oxindole compound, (S)-1′-{[5-(trifluoromethyl)furan-2-yl]methyl}spiro[furo[2,3-f][1,3]benzodioxole-7,3′-indol]-2′(1′H)one], for which the “dose with greatest effect (highest dose tested)” value in series [1] is reported as 8 % (w/w). The minimum effective dose in series [1] was 2 % (w/w). Moreover, in series [2] (male, Göttingen, minipig, plasma, topical or ocular, 70 mg spiro-oxindole compound equivalents ointment/kg, 21 days repeated dermal dosing, read-out: mean maximum observed concentration [Cmax]), the Cmax amounted to 11.7 ng/mL. Moreover, in series [2] (after last dose (Day 21)), the “time post dose at which mean plasma concentrations were maximal” value was 8 h. In series [2] (repeated dermal dosing), the “apparent steady state achieved” value is “between Days 14 and 21”. Besides, the “systemic exposure overall (in words)” value in series [2] (repeated dermal dosing) is “low systemic exposure”. The “tissue radioactivity concentrations in the majority of tissues analysed” value in series [3] (limit of quantification ca 12-25 ng equivalents spiro-oxindole compound/g) was “below the limit of quantification”. The concentration at 24 h in series [3] (heart) is 17.5 ng/g; in series [3] (liver), 11.3 ng/g; in series [3] (skin from the dose site) it was 1860 ng/g; in series [3] (white fat) it was 53.8 ng/g. In addition, the “highest observed individual plasma concentration” value in series [4] was found to be 14.5 ng/mL.

For the origin of these results see patent US20150216794A1, “METHODS OF TREATING PAIN ASSOCIATED WITH OSTEOARTHRITIS OF A JOINT WITH A TOPICAL FORMULATION OF A SPIRO-OXINDOLE COMPOUND” (IVAX International GmbH, priority 2014, published 2015).
